What all share (assay type): cell-based
Series [1] concerns NHDF-Neo (normal human dermal fibroblast-neonatal cells). Briefly: MTT cytotoxicity assay, NHDF-Neo healthy cells. Conditions: MTT assay, incubation time 24 h, read-out: IC50 NHDF-Neo. As to the method: (§1) Cytotoxicity screening of the obtained glycoconjugates, their potential metabolites, and substrates used for their synthesis was conducted using the MTT assay.
(§2) All cells were kept in a humidified incubator at 37 °C in a 5% CO2 atmosphere.
(§3) Cell viability was assessed by the MTT (3-[4,5–dimethylthiazol-2-yl]-2,5-diphenyltetrazolium bromide) test (ACROS Organics). Stock solutions of tested compounds were prepared in DMSO and stored accordingly.
(§4) Cells treated with glycoconjugates or potential metabolites were incubated for another 24–72 h (depending on the cell line). Subsequently, 50 µL MTT solution (0.5 mg/mL) in RPMI medium without Phenol Red was added to each well. After 3 h of incubation, the MTT solution was removed, and the precipitated formazan was dissolved in 100 µL of DMSO. Finally, the absorbance of the solubilized formazan crystals was measured at the 570 nm wavelength. Each experiment was carried out in three independent iterations with four technical repetitions. […] Cell viability was expressed as:Cell viability (%) = (ODsample − ODblank)/(ODcontrol − ODblank) × 100%.

Series [2] deals with HCT 116 (human colorectal cancer cell line). The series can be described thus: MTT cytotoxicity assay, HCT 116 cells. The following applies: for IC50: MTT assay, incubation time 24 h, read-out: IC50 HCT 116; for SI (HCT 116): selectivity index: ratio of IC50 NHDF-Neo to IC50 HCT 116. As to the method: as §1, §2, §3, §4
In series [3] the test system is MCF-7 (human breast adenocarcinoma cell line). The series can be described thus: MTT assay in medium with 20 µM CuCl2, MCF-7 cells. The following applies: for IC50: Homo sapiens, MCF7, MTT assay, 72 h, read-out: IC50 MCF-7 + Cu2+; for IC50 / SI (MCF-7) + Cu2+: addition of CuCl2 at 20 µM; for increase of cytotoxicity in the presence of Cu(II) ions versus without copper: MCF-7 cells, 20 µM CuCl2; for SI (MCF-7) + Cu2+: ratio of IC50 NHDF-Neo to IC50 MCF-7. As to the method: (§5) Therefore, it seemed reasonable to conduct additional experiments for the glycoconjugates for which the likely mechanism of action is based on the chelation of metal ions. Since copper can be toxic to cells, it was necessary to test the toxicity of different concentrations of copper salt on the proliferation of all cell line types. Cell cultures under standard conditions were treated with copper solutions of various concentrations, and their effect on cell proliferation was verified by the MTT assay. Cells with the non-supplemented medium were used as a reference for 100% cell viability. […] The antiproliferative activities of 8-AQ glycoconjugates were further tested in the presence of the addition of Cu^2+ ions. HCT 116, MCF-7, and NHDF-Neo cells were treated with solutions of glycoconjugates 13–18 in a culture medium supplemented with 20 µM copper chloride, and their proliferation was measured using the MTT assay. The control consisted of cells cultured in a medium with the same concentration of copper salt added. […] This effect was more pronounced for the MCF-7 cell line (Figure 2). A significant decrease in MCF-7 cell proliferation was observed after treatment with glycoconjugates at concentrations of 100 µM and 50 µM in the presence of Cu^2+ compared to treatment with glycoconjugates alone (cell viability 2–23% and 6–79%, respectively, for each glycoconjugate concentration).
(§6) Cells were seeded in 96-well plates at a concentration of 1 × 10^4 (HCT 116, NHDF-Neo) or 5 × 10^3 (MCF-7) per well. Cell cultures were incubated for 24 h at 37 °C in a humidified atmosphere with 5% CO2. The culture medium was then removed and replaced with 100 µL of the tested compounds solution at varying concentrations (from 25 µM to 200 µM) in the medium with the addition of CuCl2. The final concentration of CuCl2 was 20 µM in each well. Following 24 or 72 h of incubation, the MTT assay was performed to assess cell viability.

For series [4] the test system is unchanged. Briefly: MTT cytotoxicity assay, MCF-7 cells. Conditions: for IC50: Homo sapiens, MCF7, MTT assay, incubation time 72 h, read-out: IC50 MCF-7; for SI (MCF-7): selectivity index: ratio of IC50 NHDF-Neo to IC50 MCF-7. The protocol: as §1, §2, §3, §4
Series [5] has as its system NHDF-Neo (normal human dermal fibroblast-neonatal cells). Briefly: MTT assay in medium with 20 µM CuCl2, NHDF-Neo cells. The following applies: addition of CuCl2 at 20 µM, 24 h, read-out: IC50 NHDF-Neo + Cu2+. The protocol: as §5, §6
For series [6], the system named is HCT 116 (human colorectal cancer cell line). The series can be described thus: MTT assay in medium with 20 µM CuCl2, HCT 116 cells. The following applies: addition of CuCl2 at 20 µM; for IC50: Homo sapiens, HCT-116, MTT assay, 24 h, read-out: IC50 HCT 116 + Cu2+; for SI (HCT 116) + Cu2+: ratio of IC50 NHDF-Neo to IC50 HCT 116. As to the method:
as §5, §6

As for `CC(=O)OC[C@H]1O[C@@H](n2cc(CNc3cccc4cccnc34)nn2)[C@H](OC(C)=O)[C@@H](OC(C)=O)[C@@H]1OC(C)=O` [Compound 13], the IC50 in series [1] was more than 800 µM; in series [2] (Homo sapiens, HCT-116, 24 h), more than 800 µM; in series [3] it was 71.3 ± 4.5 µM; in series [4] it was more than 800 µM; in series [6], 118 ± 5 µM. In addition, the “increase of cytotoxicity in the presence of Cu(II) ions versus without copper” value (shortened to “increase … of Cu(II) ions versus without copper”) in series [3] was “more than ten times”. In series [3], the “SI (MCF-7) + Cu2+” value was more than 2.8. Besides, the CC50 in series [5] is more than 200 µM. For the same compound, in series [6], the “SI (HCT 116) + Cu2+” value is on record as more than 1.7.

For the compound `CC(=O)OC[C@H]1O[C@@H](n2cc(CNc3cccc4cccnc34)nn2)[C@H](OC(C)=O)[C@@H](OC(C)=O)[C@H]1OC(C)=O` [Compound 14], the half-inhibitory concentration (IC50) was more than 800 µM in series [1]; 282 ± 20.7 µM in series [2] (Homo sapiens, HCT-116, 24 h); 34.7 ± 5 µM in series [3]; 204.2 ± 1.4 µM in series [4]; 87.1 ± 15.9 µM in series [6]. Further, in series [2], the “SI (HCT 116)” value is on record as more than 2.8. Moreover, in series [3], the “increase … of Cu(II) ions versus without copper” value is recorded as “approximately six-fold”. Further, the “SI (MCF-7) + Cu2+” value in series [3] was more than 5.8. Also, in series [4], the “SI (MCF-7)” value was more than 3.9. In series [5], the CC50 is more than 200 µM.

Regarding `CC(=O)OC[C@H]1O[C@@H](OCCn2cc(CNc3cccc4cccnc34)nn2)[C@H](OC(C)=O)[C@@H](OC(C)=O)[C@@H]1OC(C)=O` [Compound 15], the IC50 in series [1] was more than 800 µM; in series [2] (Homo sapiens, HCT-116, 24 h), 284.2 ± 2.3 µM; in series [3] it was 34.1 ± 5 µM; in series [4] it was 103 ± 5.7 µM; in series [6], 80.5 ± 2.2 µM. Further, the “SI (HCT 116)” value in series [2] was more than 2.8. In addition, in series [3], the “SI (MCF-7) + Cu2+” value is more than 5.9. Besides, the “SI (MCF-7)” value in series [4] is more than 7.8. In addition, the CC50 in series [5] was more than 200 µM. In addition, the “SI (HCT 116) + Cu2+” value in series [6] is recorded as more than 2.5.

In the case of `CC(=O)OC[C@H]1O[C@@H](OCCn2cc(CNc3cccc4cccnc34)nn2)[C@H](OC(C)=O)[C@@H](OC(C)=O)[C@H]1OC(C)=O` [Compound 16], the concentration for half-maximal inhibition (IC50) in series [1] was more than 800 µM; in series [2] (Homo sapiens, HCT-116, 24 h), 227 ± 6.3 µM; in series [2], 290 ± 9.7 µM; in series [3], 31.8 ± 4.9 µM; in series [4] it was 227 ± 6.3 µM; in series [6] it was 70.8 ± 3.9 µM. For the same compound, the “SI (HCT 116)” value in series [2] was more than 2.7. Moreover, the “increase … of Cu(II) ions versus without copper” value in series [3] is recorded as “approximately six-fold”. Besides, the “SI (MCF-7) + Cu2+” value in series [3] is more than 6.3. For the same compound, the CC50 in series [5] was more than 200 µM. Besides, the “SI (HCT 116) + Cu2+” value in series [6] was more than 2.8.

Regarding `CC(=O)OC[C@H]1O[C@@H](OCc2cn(CCCNc3cccc4cccnc34)nn2)[C@H](OC(C)=O)[C@@H](OC(C)=O)[C@@H]1OC(C)=O` [Compound 17], the half-inhibitory concentration (IC50) came out at 416 ± 12.4 µM in series [1]; 116 ± 5.9 µM in series [2] (Homo sapiens, HCT-116, 24 h); 34.8 ± 0.7 µM in series [3]; 78.1 ± 9.3 µM in series [4]; 71.9 ± 1.7 µM in series [6]. Moreover, the “SI (HCT 116)” value in series [2] came to 3.6. In series [3], the “SI (MCF-7) + Cu2+” value is more than 5.7. Also, the “SI (MCF-7)” value in series [4] is listed as 5.3. Also, the CC50 in series [5] was more than 200 µM. Further, the “SI (HCT 116) + Cu2+” value in series [6] is reported as more than 2.8.

Consider `CC(=O)OC[C@H]1O[C@@H](OCc2cn(CCCNc3cccc4cccnc34)nn2)[C@H](OC(C)=O)[C@@H](OC(C)=O)[C@H]1OC(C)=O` [Compound 18], for which the IC50 in series [1] was 585 ± 7.1 µM; in series [2] (Homo sapiens, HCT-116, 24 h), 182 ± 15.6 µM; in series [3], 35.4 ± 0.1 µM; in series [4] it was 96.8 ± 6 µM; in series [6] it was 43.4 ± 2.4 µM. In addition, the “SI (HCT 116)” value in series [2] is on record as 3.2. In series [3], the “SI (MCF-7) + Cu2+” value is more than 5.6. The “SI (MCF-7)” value in series [4] was 6.0. The CC50 in series [5] is more than 200 µM. Moreover, the “SI (HCT 116) + Cu2+” value in series [6] is more than 4.6.

For `OCCn1cc(COc2cccc3cccnc23)nn1` [Compound 19a, reference compound], the half-inhibitory concentration (IC50) in series [1] is more than 800 µM; in series [2] (Homo sapiens, HCT-116, 24 h) it was more than 800 µM; in series [4], more than 800 µM.

With `OCc1cn(CCCNc2cccc3cccnc23)nn1` [Compound 20, 4-Hydroxymethyl-1-(8-quinolinylaminopropyl)-1H-1,2,3-triazol], the IC50 in series [1] is more than 800 µM; in series [2] (Homo sapiens, HCT-116, 24 h), 329 ± 5.4 µM; in series [4], 150 ± 1.8 µM. Further, the “SI (HCT 116)” value in series [2] is listed as more than 2.4. In addition, the “SI (MCF-7)” value in series [4] is reported as more than 5.3.

On to `OCc1cn(CCCOc2cccc3cccnc23)nn1` [Compound 20a, reference compound], for which the IC50 in series [1] was more than 800 µM; in series [2] (Homo sapiens, HCT-116, 24 h), more than 800 µM; in series [4] it was 602.9 ± 1.9 µM. For the same compound, the “SI (MCF-7)” value in series [4] was more than 1.3.

The values above are taken from publication PMC11767929 (Molecules, 2025).
